Assay results published in US20250228865A1, “COMPOUNDS FOR ENHANCING READ THROUGH OF GENES CONTAINING PREMATURE TERMINATION CODONS AND METHODS FOR MAKING AND USING THE SAME” (Sanofi US Services Inc., priority 2022, published 2025).
pEC50: −log10 of the molar value.

Experiments:
[1] = system: recombinant human CFTR carrying the premature stop codon (PTC) mutation R1162X; test: CFTR-PTC mutant translation readthrough, Nanoluc tagged CFTR luminescence (R1162X cell line); format: cell-based; conditions: for CFTR R1162X ACTIVITY Fold 10 μM G-418: fold over 10 μM G-418, in combination with G418; for pEC50: in combination with G418, 16HBE cells, read-out: CFTR R1162X ACTIVITY EC50
Summary of the method: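 16HBE cells stably expressing Nanoluc-tagged human CFTR with G542X or R1162X, in medium with 3 μM VX-809, treated 48 h at 37 °C with compound (10-point, 2-fold, top 50 μM final) alone or with 10 μM G418. Live-cell Nanoluc luminescence normalised to a maximally effective G418 (125-250 μM).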

[2] = system: recombinant human CFTR carrying the premature stop codon (PTC) mutation G542X; test: CFTR-PTC mutant translation readthrough, Nanoluc tagged CFTR luminescence (G542X cell line); format: cell-based; conditions: in combination with G418, G542X cell line; for CFTR G542X ACTIVITY Fold 10 μM G-418: fold over 10 μM G-418; for pEC50: 16HBE cells
Experimental: 16HBE human bronchial epithelial cells (stably over-expressing recombinant human CFTR carrying the premature stop codon (PTC) mutation G542X or R1162X along with a Nanoluc tag incorporated into the CFTR channel within extracellular loop 4 in G542X cell line or C-terminus end in the R1162X cell line were seeded at 0.01×10^6 cells/well and grown in Minimal Essential Medium (MEM) as monolayers in 384 well plates and incubated at 37° C. with 5% CO2. Media was changed every other day until day of experiment. Agents to be evaluated were made up in separate 384 well, polypropylene plates at a 2X the final desired test concentration. Test agent 10-point concentration response curves were constructed using the Labcyte Echo 555 acoustic dispenser. Test agents were typically tested at a max final test concentrations of 50 μM with sequential 2-fold lower concentrations below this in the absence or presence of a fixed 10 μM concentration of the aminoglycoside G418 made up in MEM growth media (reduced Serum Media+HEPES Buffer+2.4 g/L Sodium Bicarbonate+L-Glutamine containing CFTR corrector VX-809 (3 μM)). Treatment with 10 μM G418 alone produced approximately 10% of the response observed with a maximally effective concentration of G418 (typically 125-250 μM). Test agent effects in presence of 10 μM G418 were compared to control wells on the plate containing a maximally effective concentration of G418 (typically 125-250 μM) made up in the same media. 25 ul of test agents/control solutions were transferred from the compound plate to the cell plate, which already contained 25 ul/well of cell plating media, using an Integra Viaflo 384. Cell plates were incubated with the compounds for 48 hours, at which time they were processed using Nanoluc luminescence Kit (Promega Nano-Glo Live Cell Assay System) to measure CFTR-PTC mutant translation readthrough. Luminescence was measured as follows. Cell plates were removed from the incubator and allowed to equilibrate to room temperature for 20 minutes. Media was removed from all wells and the plates were blotted to remove excess remaining volume. Nano-Glo Live Cell Substrate was diluted 1:20 in the appropriate amount of Nano-Glo LCS Dilution Buffer to accommodate the number of cell plates being tested. The substrate/dilution buffer mix was then diluted 1:3 with MEM media to make the appropriate volume for the number of plates being tested. The substrate/dilution buffer/OptiMEM mix was added across the Nanoluc testing cell plates and the plates were read for luminescence signal immediately. Test agent effects on CFTR translation readthrough was determined by normalizing any observed increase in luminescence induced by 48 hours pretreatment with test compound to the magnitude of luminescence increase produced by pretreatment with a maximally effective concentration of the reference readthrough enhancing agent G418 (125-250 μM).

SMILES | CFTR R1162X ACTIVITY Fold 10 μM G-418 [1] | pEC50 [1] | CFTR G542X ACTIVITY Fold 10 μM G-418 [2] | pEC50 [2]
O=C(CO)N1CCN(c2ncc(OCc3c(Cl)cccc3Cl)cn2)CC1 | A′ (A′ = ≥10X) | 5.00 to 6.00 | A′ (A′ = ≥10X) | 5.00 to 6.00
Cc1cccc(C(F)(F)F)c1COc1ccc(-n2cnc(C(=O)O)n2)cc1 | A′ (A′ = ≥10X) | 5.00 to 6.00 | A′ (A′ = ≥10X) | 5.00 to 6.00
Cc1cccc(C(F)(F)F)c1COc1cnc(N2C(=O)CN(C)C2=O)nc1 | C′ (C′ = <5X) | < 5.00 | B′ (B′ = ≥5X to <10X) | < 5.00
O=C1OC(CO)CN1c1ccc(OCc2c(Cl)cccc2Cl)c(F)c1 (centres unmarked) | C′ (C′ = <5X) | 5.00 to 6.00 | B′ (B′ = ≥5X to <10X) | 5.00 to 6.00
C=C1NC(=O)N(c2ccc(OCc3c(Cl)cccc3Cl)cn2)C1=O | B′ (B′ = ≥5X to <10X) | 5.00 to 6.00 | B′ (B′ = ≥5X to <10X) | 5.00 to 6.00
CC(C)C1NC(=O)N(c2ncc(OCc3c(Cl)cccc3Cl)cn2)C1=O (centres unmarked) | B′ (B′ = ≥5X to <10X) | < 5.00 | A′ (A′ = ≥10X) | < 5.00
O=C1NC2(CCCC2)C(=O)N1c1ncc(OCc2c(Cl)cccc2Cl)cn1 | A′ (A′ = ≥10X) | < 5.00 | A′ (A′ = ≥10X) | 5.00 to 6.00
Cc1cccc(C(F)(F)F)c1COc1cnc(N2CC[S+]([O-])CC2)nc1 | A′ (A′ = ≥10X) | 5.00 to 6.00 | A′ (A′ = ≥10X) | 5.00 to 6.00
O=C1CN(c2ncc(OCc3c(Cl)cccc3Cl)cn2)CC(CO)N1 (centres unmarked) | A′ (A′ = ≥10X) | 5.00 to 6.00 | A′ (A′ = ≥10X) | 5.00 to 6.00
CN(C)C(=O)N1CCN(c2ncc(OCc3c(Cl)cccc3Cl)cn2)CC1 | A′ (A′ = ≥10X) | > 6.00 | B′ (B′ = ≥5X to <10X) | > 6.00
NC(=O)N1CCN(c2ncc(OCc3c(Cl)cccc3Cl)cn2)CC1CO (centres unmarked) | A′ (A′ = ≥10X) | > 6.00 | A′ (A′ = ≥10X) | > 6.00
CC1CN(c2ncc(OCc3c(Cl)cccc3Cl)cn2)CCN1C(N)=O (centres unmarked) | A′ (A′ = ≥10X) | > 6.00 | A′ (A′ = ≥10X) | > 6.00
CNC(=O)N1CCN(c2ncc(OCc3c(Cl)cccc3Cl)cn2)CC1 | A′ (A′ = ≥10X) | > 6.00 | A′ (A′ = ≥10X) | > 6.00
Cc1cccc(C(F)(F)F)c1COc1ccc(N2CC(CO)OC2=O)cc1 (centres unmarked) | A′ (A′ = ≥10X) | 5.00 to 6.00 | A′ (A′ = ≥10X) | 5.00 to 6.00
Cc1cccc(C(F)(F)F)c1COc1cnc(N2C(=O)NC(C)(C)C2=O)nc1 | A′ (A′ = ≥10X) | 5.00 to 6.00 | A′ (A′ = ≥10X) | 5.00 to 6.00
Cc1cccc(C(F)(F)F)c1COc1cnc(N2CCN3CCOCC3C2)nc1 (centres unmarked) | A′ (A′ = ≥10X) | > 6.00 | A′ (A′ = ≥10X) | > 6.00
CC(=O)NCC1CN(c2ncc(OCc3c(Cl)cccc3Cl)cn2)CCO1 (centres unmarked) | A′ (A′ = ≥10X) | 5.00 to 6.00 | A′ (A′ = ≥10X) | > 6.00
OCc1ncn(-c2ccc(OCc3c(Cl)cccc3C(F)(F)F)cc2)n1 | A′ (A′ = ≥10X) | 5.00 to 6.00 | A′ (A′ = ≥10X) | > 6.00
CCc1cccc(C(F)(F)F)c1COc1cnc(-n2cnc(CO)c2)nc1 | A′ (A′ = ≥10X) | > 6.00 | A′ (A′ = ≥10X) | > 6.00
CCc1cccc(C(F)(F)F)c1COc1cnc(-n2ccc(CO)n2)nc1 | A′ (A′ = ≥10X) | > 6.00 | A′ (A′ = ≥10X) | > 6.00
CC(=O)N[C@H](CO)C(=O)Nc1ccc(OCc2c(Cl)cccc2Cl)cn1 | C′ (C′ = <5X) | < 5.00 | C′ (C′ = <5X) | < 5.00
NC(=O)N1C[C@@H]2CN(c3ncc(OCc4c(Cl)cccc4Cl)cn3)C[C@@H]2C1 | B′ (B′ = ≥5X to <10X) | 5.00 to 6.00 | A′ (A′ = ≥10X) | 5.00 to 6.00
CC1(C)CN(c2ncc(OCc3c(Cl)cccc3Cl)cn2)CC(CO)O1 (centres unmarked) | A′ (A′ = ≥10X) | 5.00 to 6.00 | A′ (A′ = ≥10X) | 5.00 to 6.00
O=C1N[C@@H](CO)CN1c1ccc(OCc2c(Cl)cccc2Cl)cn1 | A′ (A′ = ≥10X) | 5.00 to 6.00 | A′ (A′ = ≥10X) | 5.00 to 6.00
O=C1N[C@H](CO)CN1c1ccc(OCc2c(Cl)cccc2Cl)cn1 | A′ (A′ = ≥10X) | > 6.00 | A′ (A′ = ≥10X) | > 6.00
Cc1cccc(C(F)(F)F)c1COc1ccc(N2C[C@@H](CO)NC2=O)nc1 | A′ (A′ = ≥10X) | > 6.00 | A′ (A′ = ≥10X) | > 6.00
O=C1N[C@H](CO)C(=O)N1c1ccc(OCc2c(Cl)cccc2Cl)cn1 | B′ (B′ = ≥5X to <10X) | < 5.00 | A′ (A′ = ≥10X) | < 5.00
OC[C@H]1CN(c2ncc(OCc3c(Cl)cccc3C(F)(F)F)cn2)CCO1 | A′ (A′ = ≥10X) | > 6.00 | A′ (A′ = ≥10X) | > 6.00
COC(=O)C1CN(c2ncc(OCc3c(Cl)cccc3Cl)cn2)CC(=O)N1 (centres unmarked) | B′ (B′ = ≥5X to <10X) | < 5.00 | A′ (A′ = ≥10X) | < 5.00
